According to patent US12624034B2, “Non-covalent modifiers of AKT1 and uses thereof” (Terremoto Biosciences, Inc., priority 2023, dated 2026):
Like-named read-outs stand apart in the source and are kept apart here.

How the values were obtained:
AKT1 WT = molecular target: T1, AKT1 WT (Homo sapiens, UniProt P31749); assay: Live cell AKT1 WT target engagement by NanoBRET competitive probe displacement in HEK293 cells; type: binding; settings: 2 h at 37° C.
T1 construct: expressed in transfected cells; host or cells: HEK293
T1 sequence (P31749 whole entry): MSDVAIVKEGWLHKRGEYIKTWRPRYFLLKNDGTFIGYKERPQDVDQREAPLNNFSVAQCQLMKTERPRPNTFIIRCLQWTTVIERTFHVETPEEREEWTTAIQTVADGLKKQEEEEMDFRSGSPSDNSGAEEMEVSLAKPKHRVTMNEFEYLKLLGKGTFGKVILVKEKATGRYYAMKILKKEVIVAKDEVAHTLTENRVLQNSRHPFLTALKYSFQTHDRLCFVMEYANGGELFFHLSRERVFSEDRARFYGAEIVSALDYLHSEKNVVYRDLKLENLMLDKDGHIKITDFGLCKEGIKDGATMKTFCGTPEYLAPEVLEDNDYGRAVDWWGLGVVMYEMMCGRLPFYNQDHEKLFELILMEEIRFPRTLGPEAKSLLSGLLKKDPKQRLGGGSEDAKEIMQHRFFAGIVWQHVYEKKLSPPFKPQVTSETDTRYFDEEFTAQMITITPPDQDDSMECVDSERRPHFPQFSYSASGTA

AKT2 = molecular target: T2, AKT2 (Homo sapiens, UniProt P31751); assay: Live cell AKT2 target engagement by NanoBRET competitive probe displacement in HEK293 cells; type: binding; settings: 2 h at 37° C., read-out: AKT2 IC50
T2 construct: expressed in transfected cells; host or cells: HEK293
T2 sequence (P31751 whole entry): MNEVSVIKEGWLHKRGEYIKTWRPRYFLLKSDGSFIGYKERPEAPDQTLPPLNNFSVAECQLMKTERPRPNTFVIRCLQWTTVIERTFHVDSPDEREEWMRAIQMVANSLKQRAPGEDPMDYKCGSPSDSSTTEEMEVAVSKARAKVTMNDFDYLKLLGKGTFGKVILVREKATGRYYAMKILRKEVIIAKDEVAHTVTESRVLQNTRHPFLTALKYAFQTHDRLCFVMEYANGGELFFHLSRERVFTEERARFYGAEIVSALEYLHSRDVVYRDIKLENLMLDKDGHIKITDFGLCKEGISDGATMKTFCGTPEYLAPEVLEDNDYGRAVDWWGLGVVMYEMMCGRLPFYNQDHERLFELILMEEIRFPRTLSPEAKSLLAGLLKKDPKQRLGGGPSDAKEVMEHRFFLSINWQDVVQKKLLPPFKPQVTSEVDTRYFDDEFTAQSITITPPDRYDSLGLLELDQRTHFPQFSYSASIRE

[1] = NanoBRET live cell target engagement, HEK293 cells, read-out: AKT1 WT IC50
[2] = NanoBRET live cell target engagement, HEK293 cells
[3] = NanoBRET competitive probe displacement, live HEK293 cells, read-out: AKT1 WT IC50
[4] = NanoBRET competitive probe displacement, live HEK293 cells

IC50 (AKT1 WT; [1]) [nM]	IC50 (AKT2; [2]) [nM]	IC50 (AKT1 WT; [3]) [nM]	IC50 (AKT2; [4]) [nM]	IC50 (AKT1 WT; AKT1 WT IC50 (nM), NanoBRET live cell target engagement, HEK293 cells) [nM]	Compound
29.9	687				Cc1cc(C(=O)N[C@H]2CCc3cc(-n4c(-c5cccnc5N)nc5ccc(-n6cccn6)nc54)ccc32)nn1C(F)F [Compound 166]
		19.6	1390		Cc1ccc(C(=O)N[C@H]2CCc3cc(-n4c(-c5cccnc5N)nc5ccc(C#CC6CC6)nc54)ccc32)cn1 [Compound 435]
9.54	163				Nc1ncccc1-c1nc2ccc(-n3cccn3)nc2n1-c1ccc2c(c1)CC[C@@H]2NC(=O)c1ccc(F)nc1 [Compound 264]
		221	3300		Nc1ncccc1-c1nc2ccc(-n3ccc(Oc4ccncc4)n3)nc2n1-c1ccc2c(c1)CC[C@@H]2NC1CCN(C(=O)C2CC2)CC1 [Compound 575]
		> 1000	7230		Nc1ncccc1-c1nc2ccc(-n3nccn3)nc2n1-c1ccc2c(c1)CC(F)[C@@H]2NC1CCN(C(=O)C2CC2)CC1 (single isomer, unassigned) [Compound 533]
38.6	604				Cc1nnc(C)n1[C@H]1CCc2cc(-n3c(-c4cccnc4N)nc4ccc(-n5cccn5)nc43)ccc21 [Compound 272, (S)-3-(3-(1-(3,5-dimethyl-4H-1,2,4-triazol-4-yl)-2,3-dihydro-1H-inden-5-yl)-5-(1H-pyrazol-1-yl)-3H-imidazo[4,5-b]pyridin-2-yl)pyridin-2-amine]
		23.2	940		Nc1ncccc1-c1nc2ccc(-n3cccn3)nc2n1-c1ccc2c(c1)CC[C@@H]2NC1CCN(C(=O)C2CC2)CC1F (stereo partly drawn) [Compound 443]
18.6	94.7				Cc1ncc(C(=O)N[C@H]2CCc3cc(-n4c(-c5cccnc5N)nc5ccc(-n6cccn6)nc54)ccc32)c(C)n1 [Compound 96]
126	5170				CN[C@H]1CCc2cc(-n3c(-c4cccnc4N)nc4ccc(-n5cccn5)nc43)ccc21 [Compound 339]
139	867				Nc1ncccc1-c1nc2ccc(-n3cccn3)nc2n1-c1ccc2c(c1)CC[C@@H]2n1ccc(=O)cc1 [Compound 83, (S)-1-(5-(2-(2-aminopyridin-3-yl)-5-(1H-pyrazol-1-yl)-3H-imidazo[4,5-b]pyridin-3-yl)-2,3-dihydro-1H-inden-1-yl)pyridin-4(1H)-one]
6.98	9.41				Nc1ncccc1-c1nc2ccc(-n3cccn3)nc2n1-c1ccc2c(c1)CC[C@@H]2NC(=O)c1ccc(N2CCOCC2)nc1 [Compound 95]
		79.7	1200		Nc1ncccc1-c1nc2ccc(-n3cccn3)nc2n1-c1ccc2c(c1)CC[C@@H]2NC1CC2(CCN(c3ccccn3)CC2)C1 [Compound 449]
		318	5640		Cn1ccc(=O)n1-c1ccn(-c2ccc3nc(-c4cccnc4N)n(-c4ccc5c(c4)CC[C@@H]5NC4CCN(C(=O)C5CC5)CC4)c3n2)n1 [Compound 573]
25.2	316				Nc1ncccc1-c1nc2ccc(-n3cccn3)nc2n1-c1ccc2c(c1)CC[C@@H]2NC(=O)c1cccnc1C1CC1 [Compound 103]
508	3180				Cc1ccc(C(C)N[C@H]2CCc3cc(-n4c(-c5cccnc5N)nc5ccc(-n6cccn6)nc54)ccc32)cn1 (stereo partly drawn) [Compound 154]
141	4290				Nc1ncccc1-c1nc2ccc(-n3nccn3)nc2n1-c1ccc2c(c1)CC[C@@H]2n1cc(C2CC2)nn1 [Compound 352]
43.6	520				Cn1nccc1C(=O)N[C@H]1CCc2cc(-n3c(-c4cccnc4N)nc4ccc(-n5cccn5)nc43)ccc21 [Compound 144]
		2.96	70		Nc1ncccc1-c1nc2ccc(-n3cccn3)nc2n1-c1ccc2c(c1)CC[C@@H]2NC(=O)c1cc(C2CC2)c(O)c(C(F)(F)F)c1 [Compound 415]
		20.2	980		Nc1ncccc1-c1nc2ccc(-n3cccn3)nc2n1-c1ccc2c(c1)CC[C@@H]2NC1CCN(C(=O)C2CC2)CC1F (stereo partly drawn) [Compound 445]
		20.8	730		COc1cccc(-c2ccc3nc(-c4cccnc4N)n(-c4ccc5c(c4)CC(F)[C@@H]5NC4CCN(C(=O)C5CC5)CC4)c3n2)n1 (stereo partly drawn) [Compound 545]
53.5	560				Nc1ncccc1-c1nc2ccc(-n3cccn3)nc2n1-c1ccc2c(c1)CC[C@@H]2NC(=O)c1cnc2nccn2c1 [Compound 160]
51.6	752				Nc1ncccc1-c1nc2ccc(-n3cccn3)nc2n1-c1ccc2c(c1)CC[C@@H]2n1nnc2ccccc21 [Compound 345]
		47.5	679		CN1CCC(n2ccc(-c3ccc4nc(-c5cccnc5N)n(-c5ccc6c(c5)CC[C@@H]6NC5CCN(C(=O)C6CC6)CC5)c4n3)n2)CC1 [Compound 570]
35.9	1870				CC#Cc1ccc2nc(-c3cccnc3N)n(-c3ccc4c(c3)CC[C@@H]4NC(=O)c3ccc(C)nc3)c2n1 [Compound 265]

IC50 (AKT1 WT; [1]) [nM]	IC50 (AKT2; [2]) [nM]	IC50 (AKT1 WT; [3]) [nM]	IC50 (AKT2; [4]) [nM]	IC50 (AKT1 WT; AKT1 WT IC50 (nM), NanoBRET live cell target engagement, HEK293 cells) [nM]	Compound
5.99	73.6				Cc1cc(C(=O)N[C@H]2CCc3cc(-n4c(-c5cccnc5N)nc5ccc(-n6cccn6)nc54)ccc32)ccn1 [Compound 75]
5.32	103				Cc1ncncc1C(=O)N[C@H]1CCc2cc(-n3c(-c4cccnc4N)nc4ccc(-n5cccn5)nc43)ccc21 [Compound 117]
599	2610				Cc1ncccc1OCC1CCc2cc(-n3c(-c4cccnc4N)nc4ccc(-n5cccn5)nc43)ccc21 (single isomer, unassigned) [Compound 252, (*)-3-(3-(1-(((2-methylpyridin-3-yl)oxy)methyl)-2,3-dihydro-1H-inden-5-yl)-5-(1H-pyrazol-1-yl)-3H-imidazo[4,5-b]pyridin-2-yl)pyridin-2-amine]
151	2520				Cc1cnc(C(=O)N[C@H]2CCc3cc(-n4c(-c5cccnc5N)nc5ccc(-n6cccn6)nc54)ccc32)c(C)n1 [Compound 207]
		28.7	928		COc1nccc2c1CCC2N[C@H]1CCc2cc(-n3c(-c4cccnc4N)nc4ccc(-n5cccn5)nc43)ccc21 (stereo partly drawn) [Compound 509]
9.37	39.5				Nc1ncccc1-c1nc2ccc(-n3cccn3)nc2n1-c1ccc2c(c1)CC[C@@H]2NC(=O)c1ccc2c(c1)CC(=O)N2 [Compound 194]
204	1210				N#Cc1cc(C(=O)N[C@H]2CCc3cc(-n4c(-c5cccnc5N)nc5ccc(-n6cccn6)nc54)ccc32)ccc1O [Compound 259]
13.5	124				COc1cc(C(=O)N[C@H]2CCc3cc(-n4c(-c5cccnc5N)nc5ccc(-n6cccn6)nc54)ccc32)n(C)n1 [Compound 158]
121	2900				Cc1cc2c(=O)n([C@H]3CCc4cc(-n5c(-c6cccnc6N)nc6ccc(-n7cccn7)nc65)ccc43)cnc2cn1 [Compound 81, (S)-3-(5-(2-(2-aminopyridin-3-yl)-5-(1H-pyrazol-1-yl)-3H-imidazo[4,5-b]pyridin-3-yl)-2,3-dihydro-1H-inden-1-yl)-6-methylpyrido[3,4-d]pyrimidin-4(3H)-one]
4.65	22.1				Cc1ncc(F)cc1C(=O)N[C@H]1CCc2cc(-n3c(-c4cccnc4N)nc4ccc(-n5cccn5)nc43)ccc21 [Compound 159]
	39.4			6.86	Cc1cc(C(=O)N[C@H]2CCc3cc(-n4c(-c5cccnc5N)nc5ccc(-n6cccn6)nc54)ccc32)cc(C)n1 [Compound 76]
		25.9	1570		Cc1ccc(C(=O)N[C@H]2CCc3cc(-n4c(-c5cccnc5N)nc5cc(F)c(-n6nccn6)nc54)ccc32)cn1 [Compound 466]
14.7	143				N#Cc1cc(-n2ccc(F)n2)nc2c1nc(-c1cccnc1N)n2-c1ccc2c(c1)CC[C@@H]2NC(=O)c1ccc(C(F)F)nc1 [Compound 329]
		19	28		Nc1ncccc1-c1nc2ccc(-n3cccn3)nc2n1-c1ccc2c(c1)CC[C@@H]2NC1CCc2cnccc21 (stereo partly drawn) [Compound 473]
43.8	886				Nc1ncccc1-c1nc2ccc(-n3cccn3)nc2n1-c1ccc2c(c1)CC[C@@H]2NCc1ccncc1 [Compound 142]
5.27	29.1				CC(=O)Nc1c(F)cc(C(=O)N[C@H]2CCc3cc(-n4c(-c5cccnc5N)nc5ccc(-n6cccn6)nc54)ccc32)cc1F [Compound 294]
		33.6	6180		Nc1ncccc1-c1nc2ccc(C#CC3CCCC3)nc2n1-c1ccc2c(c1)CC[C@@H]2NC(=O)c1ccc(C(F)F)nc1 [Compound 460]
459	> 10000				Nc1ncccc1-c1nc2ccc(-n3cccn3)nc2n1-c1ccc2c(c1)CC[C@@H]2NC1CCS(=O)(=O)CC1 [Compound 89]
95.8	596				Nc1ncccc1-c1nc2ccc(-n3cccn3)nc2n1-c1ccc2c(c1)CC[C@@H]2NC(=O)c1cccnc1C#Cc1ccccc1 [Compound 210]
		2.22	176		N[C@@H]1c2ccc(-n3c(-c4ccccc4F)nc4ccc(-n5ccc(N6CCOCC6)n5)nc43)cc2CC1F (stereo partly drawn) [Compound 571]
		13.1	296		COCCOc1ccn(-c2ccc3nc(-c4cccnc4N)n(-c4ccc5c(c4)CC[C@@H]5NC4CCN(c5ccn(C)n5)CC4)c3n2)n1 [Compound 551]
37.7	1010				CN(C)[C@H]1CCc2cc(-n3c(-c4cccnc4N)nc4ccc(-n5cccn5)nc43)ccc21 [Compound 340]
7.29	28.1				Nc1ncccc1-c1nc2ccc(-n3cccn3)nc2n1-c1ccc2c(c1)CC[C@@H]2NC(=O)c1ccc2ncnn2c1 [Compound 237]
119	6640				CC(C)(O)c1cn([C@H]2CCc3cc(-n4c(-c5cccnc5N)nc5ccc(-n6cccn6)nc54)ccc32)nn1 [Compound 219]
